Measured values reported in PMC7078479, “Sulfamoyl Heteroarylcarboxylic Acids as Promising Metallo-β-Lactamase Inhibitors for Controlling Bacterial Carbapenem Resistance” (mBio, 2020).
Like-named read-outs stand apart in the source and are kept apart here.

Assays:
[1] = target: T1, IMP-1 (Serratia marcescens, UniProt P52699); assay: Inhibition of IPM hydrolysis by purified IMP-1, Ki by Lineweaver-Burk plots; type: biochemical
T1 construct: made in house
Protocol: (§1) MBL (10 nM) was mixed with the inhibitors and incubated for 5 min at 30°C. IPM was added to reach a concentration of 150 μM, and the velocity of IPM hydrolysis was monitored at 298 nm. The assay was performed at 30°C using 10 mM HEPES (pH 7.5) buffer containing 200 mM NaCl and 50 μg/ml bovine serum albumin (BSA) for IMP-1, NDM-1, VIM-2, and SMB-1. For SFH-1 and L1, another 10 mM HEPES (pH 7.5) buffer containing 200 mM NaCl, 20 μM ZnSO4, and 50 μg/ml BSA was used.
(§2) Initial velocities (vo) were measured after varying the concentrations of IPM and inhibitors, and inverse velocities (1/vo) were plotted against inverse IPM concentrations […]. Lineweaver-Burk plots were constructed to obtain the inhibition constant (Ki) with the competitive inhibition model using the SigmaPlot 13 suite (Hulinks).

[2] = target: T2, NDM-1 (Klebsiella pneumoniae, UniProt C7C422); assay: Inhibition of IPM hydrolysis by purified NDM-1, Ki by Lineweaver-Burk plots; type: biochemical; conditions: IPM as substrate, competitive model, mean of three replicates; read-out: Inhibition constant Ki NDM-1
T2 construct: made in house
T2 sequence (C7C422 29-270 limits assumed): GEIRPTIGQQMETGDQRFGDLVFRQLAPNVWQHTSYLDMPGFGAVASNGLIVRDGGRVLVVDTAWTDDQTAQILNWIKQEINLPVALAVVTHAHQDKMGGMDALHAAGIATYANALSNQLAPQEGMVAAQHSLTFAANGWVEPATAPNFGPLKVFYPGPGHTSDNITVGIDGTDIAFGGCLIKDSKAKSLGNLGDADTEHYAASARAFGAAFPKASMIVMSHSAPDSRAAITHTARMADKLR
Protocol: as §1, §2

[3] = target: T3, VIM-2 (Escherichia coli, UniProt Q5U7L7); assay: Inhibition of IPM hydrolysis by purified VIM-2, Ki by Lineweaver-Burk plots; type: biochemical; conditions: IPM as substrate, competitive model, mean of three replicates; read-out: Inhibition constant Ki VIM-2
T3 construct: made in house
Protocol: as §1, §2

[4] = tested on: IMP producers rather than NDM/VIM producers; conditions: cited from earlier work
[5] = tested on: E. coli DH5α/pBC-VIM-2; assay: Susceptibility and checkerboard testing, VIM-2-producing E. coli; type: cell-based, Escherichia coli; conditions: for MIC: Escherichia coli
Protocol: (§3) MICs were determined via the microdilution method according to the CLSI guidelines ([38]). In brief, 5 × 10^4 bacterial cells were inoculated in 100 μl of cation-adjusted Mueller-Hinton broth (Becton, Dickinson and Company, Franklin Lakes, NJ) containing the β-lactams and appropriately diluted inhibitors. The final concentration of DMSO was maintained at 2% in the assays. The tested plates were then incubated at 35°C for 16 to 20 h. The MIC value was determined as the lowest concentration of tested β-lactams where no bacterial growth was visibly observed. The optical density at 600 nm (OD600) value was measured using a plate reader for drawing the heat maps. The FIC index value was calculated using the following equation: FIC index=MIC of β-lactam with inhibitor/MIC of β-lactam alone+MIC of inhibitor with β-lactam/MIC of inhibitor alone
(§4) Unless noted otherwise, the FIC index was defined as the lowest value among all obtained values. The synergistic effect was defined as the effect observed when the FIC index value was ≤0.5.

[6] = tested on: E. coli DH5α/pBC-IMP-1; assay: Susceptibility and checkerboard testing, IMP-1-producing E. coli; type: cell-based, Escherichia coli; conditions: for MIC: Escherichia coli
Protocol: as §3, §4

[7] = tested on: E. coli DH5α/pBC-NDM-1; assay: Susceptibility and checkerboard testing, NDM-1-producing E. coli; type: cell-based, Escherichia coli; conditions: for MIC: Escherichia coli
Protocol: as §3, §4

[8] = tested on: E. coli DH5α/pBC-TMB-2; assay: Susceptibility testing, TMB-2-producing E. coli; type: cell-based; conditions: Escherichia coli
Protocol: as §3

[9] = tested on: E. coli BL21(DE3)/pET-SPM-1; assay: Susceptibility testing, SPM-1-producing E. coli; type: cell-based; conditions: Escherichia coli
Protocol: as §3

[10] = tested on: E. coli BL21(DE3)/pET-DIM-1; assay: Susceptibility testing, DIM-1-producing E. coli; type: cell-based; conditions: Escherichia coli
Protocol: as §3

[11] = tested on: E. coli BL21(DE3)/pET-SIM-1; assay: Susceptibility testing, SIM-1-producing E. coli; type: cell-based; conditions: Escherichia coli
Protocol: as §3

[12] = tested on: E. coli BL21(DE3)/pET-KHM-1; assay: Susceptibility testing, KHM-1-producing E. coli; type: cell-based; conditions: Escherichia coli
Protocol: as §3

[13] = tested on: P. aeruginosa PAO1/pME-IMP-1; assay: Susceptibility testing, IMP-1-producing P. aeruginosa PAO1; type: cell-based; conditions: Pseudomonas aeruginosa
Protocol: as §3

[14] = tested on: P. aeruginosa PAO1/pME-NDM-1; assay: Susceptibility testing, NDM-1-producing P. aeruginosa PAO1; type: cell-based; conditions: Pseudomonas aeruginosa
Protocol: as §3

[15] = tested on: P. aeruginosa PAO1/pME-VIM-2; assay: Susceptibility testing, VIM-2-producing P. aeruginosa PAO1; type: cell-based; conditions: Pseudomonas aeruginosa
Protocol: as §3

[16] = tested on: IMP-type MBL-producing Enterobacteriaceae; assay: Susceptibility testing, 19 IMP-type MBL-producing Enterobacteriaceae isolates; type: cell-based
Protocol: as §3

[17] = tested on: IMP-1-producing Acinetobacter spp.; assay: Susceptibility testing, 8 IMP-1-producing Acinetobacter spp. isolates; type: cell-based; conditions: addition of SPC, concentration not given (Fig. S5)
Protocol: as §3

[18] = tested on: NDM-type MBL-producing Enterobacteriaceae; assay: Susceptibility testing, 14 NDM-type MBL-producing Enterobacteriaceae isolates; type: cell-based; conditions: NDM producers
Protocol: as §3

[19] = tested on: HeLa cells; assay: Toxicity assay in HeLa cells (CellTiter 96 AQueous); type: cell-based; conditions: 24 h exposure, cell proliferation assay
Protocol: HeLa cells were seeded at 5,000 cells per well in 96-well plates and cultured in Dulbecco’s modified Eagle’s medium (DMEM) (Wako Pure Chemical Industries, Osaka, Japan). After incubation for 24 h at 37°C with 5% CO2, staurosporine (Sigma-Aldrich, St. Louis, MO) and SHCs were added to each well (final DMSO concentration was 1%), after which the plates were incubated for another 24 h. Twenty microliters of tetrazolium solution, obtained from a CellTiter 96 AQueous one-solution cell proliferation assay kit (Promega, Madison, WI), was added into each well. The plate was incubated for 3 h under the same conditions mentioned above, and the absorbance at 490 nm was measured for the determination of cell proliferation.

[20] = Human liver microsomal stability test; type: in vitro ADME; conditions: 100 nM compound, 0.1 mg protein/ml, 35 min, 37°C
Protocol: Human liver microsomal stability tests were performed by Sumika Chemical Analysis Service (Osaka, Japan). Compounds (100 nM) were incubated with human liver microsomes (0.1 mg protein/ml) for 35 min at 37°C and subjected to liquid chromatography-tandem mass spectrometry (LC-MS/MS) for quantification of the loss of the tested compounds.

[21] = tested on: IMP-1-producing E. coli NUBL-24; assay: Mouse infection model, E. coli NUBL-24, survival; type: in vivo, mice; conditions: MPM 0.8 mg/kg and SPC 10 mg/kg versus MPM alone, E. coli NUBL-24 1 × 10^7 CFU
Protocol: (§5) All experiments were approved by the Nagoya University Animal Ethics Committee, and all experiments were performed in a manner that minimized animal suffering. Male CD1 mice (4 weeks old; 20 to 25 g body weight) were purchased from Charles River Laboratories Japan (Yokohama, Japan). E. coli NUBL-24 (blaIMP-1) and K. pneumoniae MS5674 (blaNDM-1 and blaVIM-1) strains were inoculated on LB agar plates and grown for 18 h at 37°C. Bacteria were then scraped from the plates, and their concentration was adjusted to 5 × 10^6 to 1 × 10^7 CFU in saline solution containing 5% mucin; this solution was then i.p. injected into the mice. At 1 and 3 h after infection, saline solution, MPM, inhibitors, and a combination of MPM and inhibitor were i.p. injected. Mice were monitored for 7 days to formulate survival curves, after which they were euthanized by CO2 asphyxiation.

[22] = tested on: dually NDM-1/VIM-1-producing Klebsiella pneumoniae MS5674; assay: Mouse infection model, K. pneumoniae MS5674, survival; type: in vivo, mice; conditions: MPM 4 mg/kg and SPC 10 mg/kg versus MPM alone, K. pneumoniae MS5674 1 × 10^7 CFU
Protocol: as §5

[23] = read-out: MIC of MPM + inhibitor (8 μg/ml)
[24] = read-out: MIC of MPM + inhibitor (32 μg/ml)
[25] = PAO1, read-out: MIC of MPM + inhibitor (10 μg/ml)
[26] = PAO1, read-out: MIC of MPM + inhibitor (50 μg/ml)

T1 sequence (P52699 19-246 limits assumed): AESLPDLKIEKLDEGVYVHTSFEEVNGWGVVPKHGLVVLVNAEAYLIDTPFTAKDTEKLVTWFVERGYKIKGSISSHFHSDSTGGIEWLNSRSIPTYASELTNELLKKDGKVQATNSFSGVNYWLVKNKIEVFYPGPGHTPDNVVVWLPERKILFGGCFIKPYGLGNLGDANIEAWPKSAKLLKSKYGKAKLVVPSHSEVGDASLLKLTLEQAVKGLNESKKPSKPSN

NS(=O)(=O)c1c(C2CCCC2)oc(C2CCCC2)c1C(=O)O [Compound 6, 2,5-dicyclopentyl-4-sulfamoylfuran-3-carboxylic acid]
Ki [1]: 1270 nM | Ki [2]: 250 nM | Ki [3]: 760 nM

NS(=O)(=O)c1sc(Cl)cc1C(=O)O [Compound 2]
Ki [1]: 19100 nM | Ki [2]: 19300 nM | Ki [3]: 2290 nM

O=C(O)c1ncsc1NS(=O)(=O)c1cccnc1 [ANT431]
Selectivity between IMP and NDM/VIM producers [4]: superior for NDM/VIM

O=C(O)/C(S)=C/c1c(Cl)ccc(Cl)c1Cl [ML302F]
Selectivity between IMP and NDM/VIM producers [4]: superior for IMP

N[C@H](CN[C@H](CN[C@@H](CC(=O)O)C(=O)O)C(=O)O)C(=O)O [AMA, Aspergillomarasmine A]
Selectivity between IMP and NDM/VIM producers [4]: superior for NDM/VIM

CC(C)(O/N=C(\C(=O)N[C@@H]1C(=O)N2C(C(=O)[O-])=C(C[n+]3ccccc3)CS[C@H]12)c1csc(N)n1)C(=O)O [CAZ, ceftazidime, reference compound]
MIC ([5]; read-out: MIC of CAZ without inhibitor): 16 µg/mL

CCCc1oc(CCC)c(S(N)(=O)=O)c1C(=O)O [Compound 5, 2,5-dipropyl-4-sulfamoylfuran-3-carboxylic acid]
Ki [1]: 380 nM | Ki [2]: 510 nM | Ki [3]: 460 nM

Cc1c(C(=O)O)c(S(N)(=O)=O)c(C)n1-c1ccccc1 [Compound 10, 2,5-dimethyl-1-phenyl-4-sulfamoylpyrrole-3-carboxylic acid]
Ki [1]: 7510 nM | Ki [2]: 10200 nM | Ki [3]: 20800 nM

NS(=O)(=O)c1sccc1C(=O)O [Compound 1]
Ki [1]: 34100 nM | Ki [2]: 7690 nM | Ki [3]: 15500 nM

Cc1c(C(=O)O)c(S(N)(=O)=O)c(C)n1C [Compound 7, 1,2,5-trimethyl-4-sulfamoylpyrrole-3-carboxylic acid]
Ki [1]: 1230 nM | Ki [2]: 9080 nM | Ki [3]: 420 nM

CCc1c(C(=O)O)c(S(N)(=O)=O)c(CC)n1C [SPC, 2,5-diethyl-1-methyl-4-sulfamoylpyrrole-3-carboxylic acid]
Ki [1]: 260 nM | Ki [2]: 840 nM | Ki [3]: 20 nM | Reduction in MPM MIC ([6]; E. coli DH5α/pBC-IMP-1, 2 μg/ml compound): 32 fold | MIC [6, 23]: 0.031 µg/mL | MIC [6, 24]: 0.031 µg/mL | Reduction in MPM MIC ([7]; E. coli DH5α/pBC-NDM-1, 2 μg/ml compound): 256 fold | MIC [7, 23]: ≤ 0.25 µg/mL | MIC [7, 24]: ≤ 0.25 µg/mL | Reduction in CAZ MIC ([5]; E. coli DH5α/pBC-VIM-2, 2 μg/ml compound): 16 fold | MIC ([5]; read-out: MIC of CAZ + inhibitor (8 μg/ml)): 1 µg/mL | MIC ([5]; read-out: MIC of CAZ + inhibitor (32 μg/ml)): 1 µg/mL | MIC [8, 23]: 0.063 µg/mL | MIC [8, 24]: 0.031 µg/mL | MIC [9, 23]: 0.063 µg/mL | MIC [9, 24]: 0.063 µg/mL | MIC [10, 23]: 2 µg/mL | MIC [10, 24]: 0.063 µg/mL | MIC [11, 23]: 1 µg/mL | MIC [11, 24]: 0.125 µg/mL | MIC [12, 23]: 0.125 µg/mL | MIC [12, 24]: 0.063 µg/mL | MIC [13, 25]: 64 µg/mL | MIC [13, 26]: 16 µg/mL | MIC [14, 25]: 4 µg/mL | MIC [14, 26]: 4 µg/mL | MIC [15, 25]: 8 µg/mL | MIC [15, 26]: 4 µg/mL | Isolates whose MPM MIC decreased to susceptibility criteria (MIC ≤1 μg/ml) ([16]; addition of inhibitor, concentration not given (Fig. S5), IMP-producing Enterobacteriaceae): 17/19 | Isolates with equal or increased reactivity toward SPC instead of SFC ([16]; reduction in MPM MIC, 4 μg/ml SPC and SFC, IMP producers): 18/19 | Isolates whose MPM MIC decreased to susceptibility criteria (MIC ≤2 μg/ml) [17]: 6/8 | Isolates whose MPM MIC decreased to susceptibility criteria (MIC ≤1 μg/ml) ([18]; addition of inhibitor, concentration not given (Fig. S5)): 7/14 | Isolates with equal or increased reactivity toward SPC instead of SFC ([18]; reduction in MPM MIC, 4 μg/ml SPC and SFC): 14/14 | Toxicity in HeLa cells [19]: low toxicity | Stability in human liver microsomes [20]: high stability | Mortality of infected mice under MPM-SPC combination therapy [21]: significantly reduced the mortality | Mortality of infected mice under MPM-SPC combination therapy [22]: significantly reduced the mortality

NCCN[C@H]1CC[C@H](CC(=O)N[C@H]2Cc3cccc(C(=O)O)c3OB2O)CC1 [VNRX-5133, taniborbactam]
Selectivity between IMP and NDM/VIM producers [4]: superior for NDM/VIM

Cc1c(C(=O)O)c(S(N)(=O)=O)c(C)n1C1CC1 [Compound 9, 1-cyclopropyl-2,5-dimethyl-4-sulfamoylpyrrole-3-carboxylic acid]
Ki [1]: 14100 nM | Ki [2]: 4850 nM | Ki [3]: 1700 nM

CC/C(C(=O)[O-])=C(\CC)C(=O)[O-].[Na+].[Na+] [ME1071]
Selectivity between IMP and NDM/VIM producers [4]: superior for IMP

CN1CCN(NC(=O)CN2C(=O)/C(=C/c3c(Cl)ccc(Cl)c3Cl)SC2=S)CC1 [ML302]
Selectivity between IMP and NDM/VIM producers [4]: superior for IMP

CCc1oc(CC)c(S(N)(=O)=O)c1C(=O)O [Compound 4, 2,5-diethyl-4-sulfamoylfuran-3-carboxylic acid]
Ki [1]: 300 nM | Ki [2]: 920 nM | Ki [3]: 1010 nM
